Converted amounts (≈) assume the structure as drawn.
Target: T1, RnpA (Staphylococcus aureus, UniProt P0A0H5)
T1 sequence (P0A0H5 1-117): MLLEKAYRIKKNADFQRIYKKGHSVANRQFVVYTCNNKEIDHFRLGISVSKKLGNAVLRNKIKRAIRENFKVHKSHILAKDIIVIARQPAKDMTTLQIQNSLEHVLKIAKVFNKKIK
Assay: RnpA mRNA degradation activity assay
Type: biochemical
Details: not given
Method: The RNase P inhibitors described herein were tested for activity toward RnpA mRNA degradation activity. Either 1 μg of total S. aureus RNA or 1 pmol of in vitro synthesized spa mRNA was incubated with 20 pmol RnpA at 37° C. for 15 to 30 min in a reaction buffer (50 mM Tris-HCl pH 8.0, 2 mM NaCl, 2 mM MgCl2) in the absence or presence of the indicated compound. Reactions were stopped by adding an equal volume of 2×RNA loading dye (95% formamide, 0.025% SDS, 0.025% bromophenol blue, 0.025% xylene cyanol FF, 0.5 mM EDTA), run on a denaturing 1.0% agarose-0.66 M formaldehyde gel and stained with ethidium bromide. RNA substrates and corresponding degradation products were visualized using a FluorChem 5500 system (Alpha Innotech; San Leandro, Calif.). The inhibitory effects of the test compounds were measured using Image J densitometry software (National Institutes of Health; Bethesda, Md.) to quantify the signal intensity of the RNA band(s) in the negative control (RNA alone), positive control (RnpA+RNA+DMSO), and experimental samples (RnpA+RNA+test compound). The percent enzyme inhibition of test compounds was calculated using the following equation: Percent inhibition=[(experimental signal-positive control)/(negative control signal-positive control signal)]*100.

| Structure (SMILES) | IC50 [µM] |
| --- | --- |
| CC(C)c1ccc(OCC(=O)NNC(=S)NC(=O)c2ccsc2)cc1 [MC-190030] | > 500 |
| CC(C)c1ccc(OCC(=O)NNC(=S)NC(=O)c2ccncc2)cc1 [MC-190050] | > 500 |

Same assay, conditions: RnpA mRNA degradation, gel densitometry; read-out: RnpA IC50

| Structure (SMILES) | IC50 [µM] |
| --- | --- |
| CCOc1ccccc1C(=O)NNC(=S)NC(=O)c1ccco1 [MC-190067] | > 500 |
| CC(C)c1ccccc1OCC(=O)NNC(=S)NC(=O)c1ccccc1OCCOc1ccccc1 [ST5528880] | > 500 |
| CC(C)c1ccc(OCC(=O)NNC(=S)NC(=O)c2ccc(Br)o2)cc1 [MC-190046] | 30 |
| CC(C)c1ccc(OCC(=O)NNC(=S)NC(=O)c2nc3ccccc3[nH]2)cc1 [MC-190052] | 150 |
| Cc1cc(C)cc(OCC(=O)NNC(=S)NC(=O)C2CC2)c1 [ST5523339] | > 500 |
| CC(C)c1ccc(OCC(=O)NNC(=S)NC(=O)c2cc3ccccc3[nH]2)cc1 [MC-190054] | 50 |
| COc1ccc2[nH]c(C(=O)NC(=S)NNC(=O)COc3ccc(C(C)C)cc3)cc2c1 [MC-190060] | 50 |
| O=C(NNC(=S)NC(=O)c1ccco1)c1ccc(F)cc1 [ST5703018] | > 500 |
| Cc1ccc(C(C)C)c(OCC(=O)NNC(=S)NC(=O)c2ccccc2OCCOc2ccccc2)c1 [ST5528960] | 40 |
| COc1ccccc1C(=O)NNC(=O)COc1ccc(C(C)C)cc1 [MC-190032] | > 500 |
| CC(C)c1ccc(OCC(=O)NNC(=S)NC(=O)C2CC2)cc1 [ST5523314] | > 500 |
| CC(C)c1ccc(OCC(=O)NNC(=O)/C=C/c2cc3ccccc3o2)cc1 [MC-190048] | < 50 |
| CC(C)c1ccc(OCC(=O)NNC(=S)NC(=O)c2cc3ccccc3n2C)cc1 [MC-190056] | 240 |
| CCOc1ccc(OCC(=O)NNC(=S)NC(=O)c2ccco2)cc1 [MC-190071] | > 500 |
| Cc1ccoc1C(=O)NC(=S)NNC(=O)COc1ccc(C(C)C)cc1 [MC-190043] | 20 |
| COc1ccccc1OCC(=O)NNC(=S)NC(=O)c1ccco1 [ST5682778] | > 500 |

Target: T2, S. aureus RNase P (RnpA+rnpB) (Staphylococcus aureus, UniProt P0A0H5)
T2 sequence (P0A0H5 1-117): T1 sequence (P0A0H5 1-117)
Assay: RNase P activity assay (precursor tRNA processing)
Type: biochemical
Details: ptRNATyr processing, gel densitometry; read-out: RNase P IC50
Method: The RNase P inhibitors described herein were tested for activity toward RNase P. S. aureus RNase P activity assays were performed in low salt buffer (50 mM Tris-HCl pH 8.0, 5 mM MgCl2) or in high salt buffer (50 mM Tris-HCl pH 8.0, 100 mM MgCl2, 800 mM NH4Cl). For all reactions, ptRNATyr, tRNATyr, or rnpB RNA species were first denatured by heating to 95° C. for 3 minutes, and then slowly cooling the mixtures to room temperature. RNase P was reconstituted by mixing an equal molar ratio of RnpB and RnpA for 15 min at 37° C. Precursor tRNA processing reactions (20 μL) were performed by mixing 1.25 pmol RNase P (RnpA+rnpB), RnpA, or rnpB with an equal volume of 2× low salt buffer or 2× high salt buffer and 10 pmol ptRNATyr. Mixtures were incubated for 15 min at 37° C. Reactions were stopped by adding 20 μL 2×RNA loading dye (95% formamide, 0.025% SDS, 0.025% bromophenol blue, 0.025% xylene cyanol FF, 0.5 mM EDTA), and 30 μL of each sample was electrophoresed in a 7 M urea/8% polyacrylamide gel and was then stained with ethidium bromide (0.5 μg/ml). Where indicated, reactions were repeated in the presence of the indicated amount of putative RnpA inhibitors or dimethyl sulfoxide (DMSO). A FluorChem 5500 imaging system was used to visualize the RNA, and the relative abundance of the mature tRNATyr band in the positive control (RNase P+DMSO) or in samples containing test compounds was measured using Image J densitometry software (NIH). The percent RNase P activity was then calculated using the following calculation: (test compound tRNATyr signal/positive control tRNATyr signal)*100.

| Structure (SMILES) | IC50 [µM] |
| --- | --- |
| CCOc1ccccc1C(=O)NNC(=S)NC(=O)c1ccco1 [MC-190067] | > 500 |
| CC(C)c1ccccc1OCC(=O)NNC(=S)NC(=O)c1ccccc1OCCOc1ccccc1 [ST5528880] | 380 |
| CC(C)c1ccc(OCC(=O)NNC(=S)NC(=O)c2ccc(Br)o2)cc1 [MC-190046] | 140 |
| CC(C)c1ccc(OCC(=O)NNC(=S)NC(=O)c2nc3ccccc3[nH]2)cc1 [MC-190052] | 90 |
| CC(C)c1ccc(OCC(=O)NNC(=S)NC(=O)c2cc3ccccc3[nH]2)cc1 [MC-190054] | < 0.5 |
| COc1ccc2[nH]c(C(=O)NC(=S)NNC(=O)COc3ccc(C(C)C)cc3)cc2c1 [MC-190060] | < 50 |
| O=C(NNC(=S)NC(=O)c1ccco1)c1ccc(F)cc1 [ST5703018] | > 500 |
| Cc1ccc(C(C)C)c(OCC(=O)NNC(=S)NC(=O)c2ccccc2OCCOc2ccccc2)c1 [ST5528960] | > 500 |
| COc1ccccc1C(=O)NNC(=O)COc1ccc(C(C)C)cc1 [MC-190032] | 75 |
| CC(C)c1ccc(OCC(=O)NNC(=S)NC(=O)C2CC2)cc1 [ST5523314] | > 500 |
| CC(C)c1ccc(OCC(=O)NNC(=O)/C=C/c2cc3ccccc3o2)cc1 [MC-190048] | < 50 |
| CCOc1ccc(OCC(=O)NNC(=S)NC(=O)c2ccco2)cc1 [MC-190071] | > 500 |
| CC(C)c1ccc(OCC(=O)NNC(=S)NC(=O)c2ccsc2)cc1 [MC-190030] | 395 |
| Cc1ccoc1C(=O)NC(=S)NNC(=O)COc1ccc(C(C)C)cc1 [MC-190043] | 150 |
| COc1ccccc1OCC(=O)NNC(=S)NC(=O)c1ccco1 [ST5682778] | > 500 |
| CC(C)c1ccc(OCC(=O)NNC(=S)NC(=O)c2ccncc2)cc1 [MC-190050] | 150 |

Test system: Staphylococcus aureus strain UAMS-1
Assay: Antimicrobial susceptibility testing (MIC, broth microdilution)
Type: cell-based
Details: Staphylococcus aureus, UAMS1, 18 h, S. aureus UAMS-1, Mueller Hinton broth, 37° C., read-out: MIC
Method: The RNase P inhibitors described herein were tested for antimicrobial activity toward Staphylococcus aureus strain UAMS-1. Individual wells of a 96-well microtiter plate were inoculated with ˜1×10^5 colony-forming units (CFU) of the indicated organism, containing two-fold increasing concentrations (from 0 to 256 μg mL^−1) of the indicated antibiotic or putative RnpA inhibitor, and incubated at 37° C. for 18 hours in Mueller Hinton broth. The MIC was defined as the lowest concentration of antibiotic in which there was no visible bacterial growth in the wells. Minimum bactericidal concentration testing was performed by enumerating the bacterial cells in each of the wells containing treatments at and above the MIC.

| Structure (SMILES) | MIC [µg/mL] |
| --- | --- |
| CCOc1ccccc1C(=O)NNC(=S)NC(=O)c1ccco1 [MC-190067] | 8 to 16 (≈ 24 to 48 µM) |
| CC(C)c1ccccc1OCC(=O)NNC(=S)NC(=O)c1ccccc1OCCOc1ccccc1 [ST5528880] | > 128 |
| CC(C)c1ccc(OCC(=O)NNC(=S)NC(=O)c2ccc(Br)o2)cc1 [MC-190046] | 32 (≈ 72.7 µM) |
| CC(C)c1ccc(OCC(=O)NNC(=S)NC(=O)c2nc3ccccc3[nH]2)cc1 [MC-190052] | 128 (≈ 311 µM) |
| Cc1cc(C)cc(OCC(=O)NNC(=S)NC(=O)C2CC2)c1 [ST5523339] | 16 (≈ 49.8 µM) |
| CC(C)c1ccc(OCC(=O)NNC(=S)NC(=O)c2cc3ccccc3[nH]2)cc1 [MC-190054] | 16 (≈ 39 µM) |
| COc1ccc2[nH]c(C(=O)NC(=S)NNC(=O)COc3ccc(C(C)C)cc3)cc2c1 [MC-190060] | 32 (≈ 72.6 µM) |
| O=C(NNC(=S)NC(=O)c1ccco1)c1ccc(F)cc1 [ST5703018] | 64 (≈ 208 µM) |
| Cc1ccc(C(C)C)c(OCC(=O)NNC(=S)NC(=O)c2ccccc2OCCOc2ccccc2)c1 [ST5528960] | > 128 |
| COc1ccccc1C(=O)NNC(=O)COc1ccc(C(C)C)cc1 [MC-190032] | > 128 |
| CC(C)c1ccc(OCC(=O)NNC(=S)NC(=O)C2CC2)cc1 [ST5523314] | 8 (≈ 23.9 µM) |
| CC(C)c1ccc(OCC(=O)NNC(=O)/C=C/c2cc3ccccc3o2)cc1 [MC-190048] | > 256 |
| CC(C)c1ccc(OCC(=O)NNC(=S)NC(=O)c2cc3ccccc3n2C)cc1 [MC-190056] | 64 (≈ 151 µM) |
| CCOc1ccc(OCC(=O)NNC(=S)NC(=O)c2ccco2)cc1 [MC-190071] | 256 (≈ 704 µM) |
| CC(C)c1ccc(OCC(=O)NNC(=S)NC(=O)c2ccsc2)cc1 [MC-190030] | 64 (≈ 170 µM) |
| Cc1ccoc1C(=O)NC(=S)NNC(=O)COc1ccc(C(C)C)cc1 [MC-190043] | 32 (≈ 85.2 µM) |
| COc1ccccc1OCC(=O)NNC(=S)NC(=O)c1ccco1 [ST5682778] | > 128 |
| CC(C)c1ccc(OCC(=O)NNC(=S)NC(=O)c2ccncc2)cc1 [MC-190050] | 128 (≈ 344 µM) |

Test system: S. aureus strain UAMS-1
Assay: Fractional Inhibitory Concentration testing with mupirocin
Type: cell-based
Details: combined with mupirocin, S. aureus UAMS-1, Mueller Hinton broth, 18 hours; synergistic FIC≤0.5
Method: The RNase P inhibitors described herein were tested for Fractional Inhibitory Concentration (FIC) in the presence of mupirocin. FIC testing was performed to determine the combined effects of mupirocin and the RnpA inhibitors as described herein. Individual wells of a 96-well microtiter plate were inoculated with 1×10^5 CFU of S. aureus strain UAMS-1 in a Mueller Hinton broth. Each row of the plate contained increasing concentrations of RNPA1000 or RNPA2000 (two-fold increments; 0, 0.004, 0.008, 0.016, 0.03, 0.06, 0.125, 0.25, 0.5, 1, 2, or 4×MIC), whereas each column contained increasing concentrations of the indicated antibiotic (two-fold increments; 0, 0.06, 0.125, 0.25, 0.5, 1, 2, or 4×MIC). Plates were incubated for 18 hours at 37° C., and growth was detected by the unaided eye. The FIC was determined using the following formula: (MIC of Drug A in Combination/MIC of Drug A Alone)+(MIC of Drug B in Combination/MIC of Drug B Alone)=FIC. A synergistic interaction was defined as an FIC value≤0.5, no interaction as an FIC of 0.5-4, or an antagonistic interaction FIC>4.

| Structure (SMILES) | FIC with Mupirocin |
| --- | --- |
| CCOc1ccccc1C(=O)NNC(=S)NC(=O)c1ccco1 [MC-190067] | 0.625 |
| CC(C)c1ccccc1OCC(=O)NNC(=S)NC(=O)c1ccccc1OCCOc1ccccc1 [ST5528880] | 0.56 |
| CC(C)c1ccc(OCC(=O)NNC(=S)NC(=O)c2ccc(Br)o2)cc1 [MC-190046] | 0.3125 |
| CC(C)c1ccc(OCC(=O)NNC(=S)NC(=O)c2nc3ccccc3[nH]2)cc1 [MC-190052] | 0.56 |
| Cc1cc(C)cc(OCC(=O)NNC(=S)NC(=O)C2CC2)c1 [ST5523339] | 1 |
| CC(C)c1ccc(OCC(=O)NNC(=S)NC(=O)c2cc3ccccc3[nH]2)cc1 [MC-190054] | 0.49 |
| COc1ccc2[nH]c(C(=O)NC(=S)NNC(=O)COc3ccc(C(C)C)cc3)cc2c1 [MC-190060] | 0.49 |
| O=C(NNC(=S)NC(=O)c1ccco1)c1ccc(F)cc1 [ST5703018] | 0.625 |
| Cc1ccc(C(C)C)c(OCC(=O)NNC(=S)NC(=O)c2ccccc2OCCOc2ccccc2)c1 [ST5528960] | 0.56 |
| COc1ccccc1C(=O)NNC(=O)COc1ccc(C(C)C)cc1 [MC-190032] | 0.75 |
| CC(C)c1ccc(OCC(=O)NNC(=S)NC(=O)C2CC2)cc1 [ST5523314] | 1 |
| CC(C)c1ccc(OCC(=O)NNC(=O)/C=C/c2cc3ccccc3o2)cc1 [MC-190048] | 0.5625 |
| CC(C)c1ccc(OCC(=O)NNC(=S)NC(=O)c2cc3ccccc3n2C)cc1 [MC-190056] | 0.49 |
| CCOc1ccc(OCC(=O)NNC(=S)NC(=O)c2ccco2)cc1 [MC-190071] | 0.375 |
| CC(C)c1ccc(OCC(=O)NNC(=S)NC(=O)c2ccsc2)cc1 [MC-190030] | 0.375 |
